The results in this text go back to patent US11399541B2, “Storage-stable microbicidal concentrates and use thereof as preservatives” (Vink Chemicals GmbH & Co. KG, priority 2017, dated 2022).

Marks after values point to notes of the source that are not given here.

One assay concerns Staphylococcus aureus. The assay is described as follows: Staphylococcus aureus Germ Count Reduction Test. Format: cell-based. Particulars: use-concentration (0.50% Composition 1; 0.0025% amine; 0.0050% butyl-BIT; 0.50% phenoxyethanol), initial count approx. 10^7 cfu/ml; for semi-quantitative assessment of the microbial growth of the streaks, Contact time [min] 2: contact time 2 min; for semi-quantitative assessment of the microbial growth of the streaks, Contact time [min] 5: contact time 5 min; for semi-quantitative assessment of the microbial growth of the streaks, Contact time [min] 10: contact time 10 min; for semi-quantitative assessment of the microbial growth of the streaks, Contact time [min] 60: contact time 60 min. The protocol:
(§1) Dilutions of the samples are prepared with sterile tap water. 25 ml portions of the end solutions are inoculated with 0.1 ml microorganism suspension (initial microorganism count approx. 10^7 cfu/ml) and stirred.
For the reduction test with Staphylococcus aureus the solutions are streaked out onto tryptone soya agar after 2,5,10 and 60 minutes.
(§2) The cultures are incubated for 48 hours at 37° C., except for Aspergillus brasiliensis, which is incubated for 72 hours at 25-27° C. The evaluation is made on the basis of semi-quantitative assessment of the microbial growth of the streaks.

The next assay deals with Aspergillus brasiliensis. The assay is described as follows: Aspergillus brasiliensis Germ Count Reduction Test. Format: cell-based. Particulars: use-concentration (0.50% Composition 1; 0.0025% amine; 0.0050% butyl-BIT; 0.50% phenoxyethanol), initial count approx. 10^7 cfu/ml; for semi-quantitative assessment of the microbial growth of the streaks, Contact time [h] 1: contact time 1 h; for semi-quantitative assessment of the microbial growth of the streaks, Contact time [h] 3: contact time 3 h; for semi-quantitative assessment of the microbial growth of the streaks, Contact time [h] 6: contact time 6 h; for semi-quantitative assessment of the microbial growth of the streaks, Contact time [h] 24: contact time 24 h. The protocol: as §1
For testing the reduction with Aspergillus brasiliensis the solutions are streaked out onto Sabouraud-dextrose 4% agar after 1, 3, 6 and 24 hours.
as §2

With `CCCCn1sc2ccccc2c1=O` [2-butyl-1,2-benzisothiazolin-3-one], in the assay with Staphylococcus aureus, the “semi-quantitative assessment of the microbial growth of the streaks, Contact time [min] 2” value is on record as “++++ (= massive growth approx. 10^5)”; the “semi-quantitative assessment of the microbial growth of the streaks, Contact time [min] 5” value is listed as “++++ (= massive growth approx. 10^5)”; the “semi-quantitative assessment of the microbial growth of the streaks, Contact time [min] 10” value is reported as “++++ (= massive growth approx. 10^5)”; the “semi-quantitative assessment of the microbial growth of the streaks, Contact time [min] 60” value is listed as “+++ (= heavy growth approx. 10^4)”. Also, in the assay with Aspergillus brasiliensis, the “semi-quantitative assessment of the microbial growth of the streaks, Contact time [h] 1” value is “++++ (= massive growth approx. 10^5)”; the “semi-quantitative assessment of the microbial growth of the streaks, Contact time [h] 3” value is reported as “++++ (= massive growth approx. 10^5)”; the “semi-quantitative assessment of the microbial growth of the streaks, Contact time [h] 6” value is recorded as “++++ (= massive growth approx. 10^5)”; the “semi-quantitative assessment of the microbial growth of the streaks, Contact time [h] 24” value is listed as “++++ (= massive growth approx. 10^5)”.

As to `CCCCCCCCCCCCN(CCCN)CCCN` [N,N bis(3-aminopropyl)-dodecylamine], in the assay on Staphylococcus aureus, the “semi-quantitative assessment of the microbial growth of the streaks, Contact time [min] 2” value is listed as “+++ (= heavy growth approx. 10^4)”; the “semi-quantitative assessment of the microbial growth of the streaks, Contact time [min] 5” value was “++ (= moderate growth approx. 10^3)”; the “semi-quantitative assessment of the microbial growth of the streaks, Contact time [min] 10” value is “++ (= moderate growth approx. 10^3)”; the “semi-quantitative assessment of the microbial growth of the streaks, Contact time [min] 60” value is on record as “− (= no growth <100)”. Moreover, in the assay on Aspergillus brasiliensis, the “semi-quantitative assessment of the microbial growth of the streaks, Contact time [h] 1” value is given as “C (= surface covered approx. 10^6)”; the “semi-quantitative assessment of the microbial growth of the streaks, Contact time [h] 3” value is “C (= surface covered approx. 10^6)”; the “semi-quantitative assessment of the microbial growth of the streaks, Contact time [h] 6” value is “++++ (= massive growth approx. 10^5)”; the “semi-quantitative assessment of the microbial growth of the streaks, Contact time [h] 24” value is on record as “++++ (= massive growth approx. 10^5)”.
